The results in this text go back to ChEMBL document CHEMBL2010759, “Scabronine M, a novel inhibitor of NGF-induced neurite outgrowth from PC12 cells from the fungus Sarcodon scabrosus” (Bioorg Med Chem Lett, 2012).

For series [1], the system named is PC-12. In words: Inhibition of NGF-mediated neurite outgrowth in rat PC12 cells after 24 hrs by light microscopy. Type of series: functional, cell-based.
The subject of series [2] is PC-12. The experiment in a line: Increase of NGF-mediated neurite outgrowth in rat PC12 cells after 24 hrs by light microscopy. Type of series: functional, cell-based.
Series [3] concerns PC-12. In words: Increase of NGF-mediated neurite outgrowth in rat PC12 cells at 1 uM after 24 hrs by light microscopy (reference value: 21.06 +/- 1.27 %). Format: functional.
In series [4] the test system is PC-12. The experiment in a line: Inhibition of NGF-mediated neurite outgrowth in rat PC12 cells at 10 uM after 24 hrs by light microscopy (reference value: 21.06 +/- 1.27 %). Type of series: functional. To be noted: PC-12, 24 h.
In series [5] the test system is PC-12. The experiment in a line: Inhibition of NGF-mediated neurite outgrowth in rat PC12 cells at 50 uM after 24 hrs by light microscopy (reference value: 21.06 +/- 1.27 %). Type of series: functional. To be noted: PC-12, 24 h.
In series [6] the test system is PC-12. The experiment in a line: Inhibition of NGF-mediated neurite outgrowth in rat PC12 cells at 100 uM after 24 hrs by light microscopy (reference value: 21.06 +/- 1.27 %). Type of series: functional. As to conditions: PC-12, 24 h.
Series [7] relates to PC-12. In words: Increase of NGF-induced neuronal differentiation in rat PC12 cells up to 100 uM after 24 hrs by light microscopy. Type of series: functional, cell-based.
The subject of series [8] is PC-12. The experiment in a line: Cytotoxicity against rat PC12 cells at 100 uM after 2 days by MTT assay. Type of series: cell-based. To be noted: pc-12, 48 h. In general terms: Tetrazolium dyes change colour on reduction, which living cells bring about.
Series [9] deals with T1, Mitogen-activated protein kinase 1 and 3 (ERK2 and ERK1) (Rattus norvegicus) (UniProt P63086+P21708). The experiment in a line: Inhibition of NGF-induced ERK1/2 phosphorylation in rat PC12 cells at 1 uM after 15 mins by Western blotting analysis relative to beta-actin level (reference value: 0.275 +/- 0.005). Type of series: cell-based. To be noted: PC-12. In general terms: A western blot detects proteins with antibodies after separation by electrophoresis.

For series [10], the target named is T1, Mitogen-activated protein kinase 1 and 3 (ERK2 and ERK1) (Rattus norvegicus). The experiment in a line: Inhibition of NGF-induced ERK1/2 phosphorylation in rat PC12 cells at 10 uM after 15 mins by Western blotting analysis relative to beta-actin level (reference value: 0.275 +/- 0.005). Type of series: cell-based. As to conditions: PC-12.
Series [11] has the same target. In words: Inhibition of NGF-induced ERK1/2 phosphorylation in rat PC12 cells at 50 uM after 15 mins by Western blotting analysis relative to beta-actin level (reference value: 0.275 +/- 0.005). As to conditions: PC-12. Type of series: cell-based.
For series [12] the target is unchanged. In words: Inhibition of NGF-induced ERK1/2 phosphorylation in rat PC12 cells after 15 mins by Western blotting analysis relative to beta-actin level. Type of series: cell-based. To be noted: PC-12.
Series [13] concerns the target High affinity nerve growth factor receptor (Rattus norvegicus) (UniProt P35739). In words: Inhibition of NGF-induced TrkA receptor phosphorylation in rat PC12 cells at 1 uM after 15 mins by ELISA relative to control. Type of series: cell-based. To be noted: PC-12. For orientation: In an ELISA, binding on a coated surface is turned into a signal by an enzyme label.

Series [14] shares this target. The experiment in a line: Inhibition of NGF-induced TrkA receptor phosphorylation in rat PC12 cells at 10 uM after 15 mins by ELISA relative to control. To be noted: PC-12. Format: cell-based.
The target is the same in series [15]. In words: Inhibition of NGF-induced TrkA receptor phosphorylation in rat PC12 cells at 50 uM after 15 mins by ELISA relative to control. Type of series: cell-based. As to conditions: PC-12.
The target is the same in series [16]. In words: Inhibition of NGF-induced TrkA receptor phosphorylation in rat PC12 cells after 15 mins by ELISA relative to control. Format: cell-based. To be noted: PC-12.

Activity calls are given as the source filed them. The rule behind the calls is not given here.

T1 sequence (P21708 whole entry, looked up): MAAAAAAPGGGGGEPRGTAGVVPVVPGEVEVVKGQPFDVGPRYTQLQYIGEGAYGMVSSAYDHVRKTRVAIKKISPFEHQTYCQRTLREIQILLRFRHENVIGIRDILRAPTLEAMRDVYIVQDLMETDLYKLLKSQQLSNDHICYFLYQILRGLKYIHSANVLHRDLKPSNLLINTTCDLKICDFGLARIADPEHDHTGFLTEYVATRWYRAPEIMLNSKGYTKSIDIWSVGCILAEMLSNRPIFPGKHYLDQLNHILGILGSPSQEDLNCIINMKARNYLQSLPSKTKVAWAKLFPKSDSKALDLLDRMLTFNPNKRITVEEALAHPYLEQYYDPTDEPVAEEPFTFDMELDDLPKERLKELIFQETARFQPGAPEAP
T1 sequence (P63086 whole entry, looked up): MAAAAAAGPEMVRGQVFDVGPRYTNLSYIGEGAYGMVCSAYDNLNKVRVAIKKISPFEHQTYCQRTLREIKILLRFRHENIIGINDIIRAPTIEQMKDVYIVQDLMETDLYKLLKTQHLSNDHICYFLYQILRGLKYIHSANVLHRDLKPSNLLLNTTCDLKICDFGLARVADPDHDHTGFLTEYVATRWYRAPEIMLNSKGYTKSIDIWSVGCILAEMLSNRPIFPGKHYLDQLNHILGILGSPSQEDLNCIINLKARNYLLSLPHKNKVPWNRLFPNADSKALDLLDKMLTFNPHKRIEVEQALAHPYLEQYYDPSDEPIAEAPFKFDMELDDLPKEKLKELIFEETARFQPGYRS
High affinity nerve growth factor receptor (Rattus norvegicus), sequence (P35739 whole entry): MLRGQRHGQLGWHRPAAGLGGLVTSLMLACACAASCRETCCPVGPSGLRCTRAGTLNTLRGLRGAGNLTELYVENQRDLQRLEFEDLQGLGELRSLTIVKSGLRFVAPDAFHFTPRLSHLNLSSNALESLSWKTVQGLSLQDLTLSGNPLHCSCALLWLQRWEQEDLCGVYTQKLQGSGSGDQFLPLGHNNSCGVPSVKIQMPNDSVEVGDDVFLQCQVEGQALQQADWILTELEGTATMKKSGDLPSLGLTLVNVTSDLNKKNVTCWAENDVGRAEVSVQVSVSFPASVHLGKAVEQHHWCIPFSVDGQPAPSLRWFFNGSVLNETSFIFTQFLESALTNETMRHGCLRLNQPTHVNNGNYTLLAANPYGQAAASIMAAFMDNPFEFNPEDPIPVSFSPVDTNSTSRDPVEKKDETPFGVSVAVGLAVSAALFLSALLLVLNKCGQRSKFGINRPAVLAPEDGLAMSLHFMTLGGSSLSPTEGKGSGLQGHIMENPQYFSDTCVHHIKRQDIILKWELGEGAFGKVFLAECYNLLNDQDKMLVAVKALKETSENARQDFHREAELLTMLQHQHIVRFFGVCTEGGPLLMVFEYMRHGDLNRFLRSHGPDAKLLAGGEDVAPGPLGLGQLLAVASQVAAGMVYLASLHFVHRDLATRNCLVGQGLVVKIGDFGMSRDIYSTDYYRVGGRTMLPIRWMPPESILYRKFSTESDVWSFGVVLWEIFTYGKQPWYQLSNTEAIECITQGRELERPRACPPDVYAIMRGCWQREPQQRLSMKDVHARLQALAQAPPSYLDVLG

Consider `CC(C)[C@@H](C)/C=C/[C@@H](C)[C@H]1CC[C@@H]2[C@]1(C)CC[C@H]1[C@]23C=C[C@]2(C[C@@H](O)CC[C@]12C)OO3`, for which, in the series on PC-12 [1], the inhibition result is “inactive”.

Take `CC(C)[C@@H](C)/C=C/[C@@H](C)[C@H]1CC[C@@H]2[C@]1(C)CC[C@H]1[C@]23C=C[C@]2(C[C@@H](O[C@@H]4O[C@H](CO)[C@@H](O)[C@H](O)[C@H]4O)CC[C@]12C)OO3`: the inhibition entry in the series with PC-12 [1] is “inactive”.

As for `CC(C)[C@@H](C)/C=C/[C@@H](C)[C@H]1CC[C@H]2C3=CC(=O)[C@@]4(O)C[C@@H](O)CC[C@]4(C)[C@@]3(O)CC[C@]12C`, the inhibition result in the series on PC-12 [1] was “inactive”.

Regarding `CC(C)[C@@H](C)/C=C/[C@@H](C)[C@H]1CC[C@H]2C3=CC=C4C[C@@H](O)CC[C@]4(C)[C@H]3CC[C@]12C`, the inhibition entry in the series with PC-12 [1] was “inactive”.

In the case of `CC(C)[C@@H](C)/C=C/[C@@H](C)[C@H]1CC[C@H]2C3=CC[C@H]4C[C@@H](O)CC[C@]4(C)[C@H]3CC[C@]12C`, the inhibition entry in the series on PC-12 [1] was “inactive”.

Turning to `CC(C)[C@@H](C)/C=C/[C@@H](C)[C@H]1CC[C@H]2C3=C[C@@H](O)[C@@]4(O)C[C@@H](O)CC[C@]4(C)[C@H]3CC[C@]12C`, the inhibition entry in the series with PC-12 [1] is “inactive”.

With `CC(C)[C@@H](C)/C=C/[C@@H](C)[C@H]1CC[C@H]2C3=C[C@@H](O)[C@@]4(O)C[C@@H](O[C@@H]5O[C@H](CO)[C@@H](O)[C@H](O)[C@H]5O)CC[C@]4(C)[C@H]3CC[C@]12C`, the inhibition result in the series on PC-12 [1] was “inactive”.

As for `CCCCCCCCCCCCCCC[C@@H](O)C(=O)N[C@@H](CO[C@@H]1O[C@H](CO)[C@@H](O)[C@H](O)[C@H]1O)[C@H](O)/C=C/CC/C=C(\C)CCCCCCCCC`, the inhibition result in the series with PC-12 [1] was “inactive”.

Regarding `CO[C@@H]1C=C2[C@@H]3CC[C@H]([C@H](C)/C=C/[C@H](C)C(C)C)[C@@]3(C)CC[C@]2(O)[C@@]2(C)CC[C@H](O)C[C@]12O`, in the series on PC-12 [1], the inhibition entry was “inactive”.

Take `C[C@H](CO)C1=C2C3=CC=C(C=O)C[C@H](O)[C@]3(C)CC[C@@]2(CO)CC1`: the inhibition entry with PC-12 [1] was “inactive”.

As for `C[C@H](CO)C1=C2[C@H]3CC=C(C=O)CC(=O)[C@]3(C)CC[C@@]2(C)CC1`, the inhibition entry in the series with PC-12 [1] was “Active”. Moreover, the result in the series with PC-12 [2] was Active.

`C[C@H](CO)[C@]12CC[C@]3(C)CC[C@@]4(C)C(=O)CC(C=O)=CC[C@@H]4[C@@]31O2` (relative stereo) [SCABRONINE M]: the inhibition entry (with PC-12 [1]; in [12]; in series [16]) was “Dose-dependent effect” throughout. In addition, the Activity in the series with PC-12 [3] is listed as 23.22%; in the series on PC-12 [8], “Non-toxic”. In the series on PC-12 [4], this molecule yielded a neurite-bearing cells at 10 µM of 9.15%. This molecule also gave a neurite-bearing cells at 50 µM with PC-12 [5] of 1.6%. Moreover, in the series with PC-12 [6], the neurite-bearing cells at 100 µM was found to be 0.1%. In the series on PC-12 [7], the result was inactive. For the same molecule, the Ratio amounted to 0.26 in series [9], 0.24 in [10] and 0.21 in series [11]. Also, the fold change (FC) in [13] was 1.61; in [14], 1.4; in [15], 1.34.
